Data published in patent EP4603105A1, “PHARMACEUTICAL COMPOSITION CONTAINING CYCLIC COMPOUND HAVING SELECTIVE KRAS INHIBITORY EFFECT AGAINST HRAS AND NRAS” (CHUGAI SEIYAKU KABUSHIKI KAISHA, priority 2022, dated 2024).
*1 amine or outer side, *2 acyl side, *3 side chain or, on linkers, in order; H or OH if unused. Where a SMILES comes first, the peptide text is derived from it. Bridges are numbered along the chain shown (N, C = ends). [ ]: non-standard residue; d: D form. The star is where a group is joined. hPhe(3-Cl-4-CF3) = N[C@@H](CCc1ccc(C(F)(F)F)c(Cl)c1)C(=O)O; NPrPhe(4-CF3) = CCCN[C@@H](Cc1ccc(C(F)(F)F)cc1)C(=O)O; X26 = CCCN([C@@H](Cc1ccc(F)cc1)C(=O)[*:2])[*:1]; NMeGly(cPent) = CN[C@H](C(=O)O)C1CCCC1; Pro(4,4-F2) = O=C(O)[C@@H]1CC(F)(F)CN1; Hyp = O=C(O)[C@@H]1C[C@@H](O)CN1; NMeD = CN[C@@H](CC(=O)O)C(=O)O; NMeL = CN[C@@H](CC(C)C)C(=O)O; Morpholide = C1CN(*)CCO1; Ac5c = NC1(C(=O)O)CCCC1; Aze = O=C(O)[C@@H]1CCN1; Sar = CNCC(=O)O

Columns and labels:
[1] = target: GDP-bound NRAS wild-type protein (Homo sapiens, UniProt P01111); assay: Binding to NRAS by surface plasmon resonance (SPR), KD and KD ratio to KRAS
Chain of GDP-bound NRAS wild-type protein (P01111 whole entry): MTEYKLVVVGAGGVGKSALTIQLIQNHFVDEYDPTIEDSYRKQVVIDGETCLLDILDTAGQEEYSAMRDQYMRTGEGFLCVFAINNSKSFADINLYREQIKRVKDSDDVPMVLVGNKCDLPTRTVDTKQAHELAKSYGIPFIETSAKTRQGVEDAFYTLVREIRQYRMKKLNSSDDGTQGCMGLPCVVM
Outline: (§1)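 Recombinant RAS proteins bearing a biotinylated Avi tag and loaded with GDP served as the captured ligand, recaptured fresh every cycle. Binding responses were referenced to an uncoated surface and a buffer-only blank cycle. Dissociation constants were obtained by 1:1 model fitting at 30°C.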

[2] = tested on: human lung cancer strain NCI-H441; assay type: cell-based
Outline: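 Signal came from […] measured per well once the reagent was added. Beforehand, cells were cultured at 37°C and 5% carbon dioxide on a compound series serially diluted in dimethyl sulfoxide.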

HRAS wild-type protein = HRAS wild-type protein (Homo sapiens, UniProt P01112); assay: Binding to HRAS by surface plasmon resonance (SPR), KD and KD ratio to KRAS
Chain of HRAS wild-type protein (P01112 whole entry): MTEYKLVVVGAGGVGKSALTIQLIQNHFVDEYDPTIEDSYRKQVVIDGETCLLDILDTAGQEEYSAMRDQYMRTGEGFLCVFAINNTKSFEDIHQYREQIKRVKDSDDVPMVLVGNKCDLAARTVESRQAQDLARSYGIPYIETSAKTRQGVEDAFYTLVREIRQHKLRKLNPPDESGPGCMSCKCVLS
Outline: as §1

[3] = ratio of the KD value with respect to GDP-bound NRAS wild-type protein to the KD value with respect to KRAS
[4] = ratio of the KD value with respect to HRAS wild-type protein to the KD value with respect to KRAS
[5] = ratio of KD for GDP-bound NRAS wild-type protein to KD for KRAS
[6] = ratio of KD for HRAS wild-type protein to KD for KRAS
[7] = ratio of KD value for GDP-bound NRAS wild-type protein to KD value for KRAS (SPR)
[8] = ratio of KD value for HRAS wild-type protein to KD value for KRAS (SPR)

Row | Structure (SMILES) | IC50 [2] [nM] | NRAS /KRAS [1, 3] | HRAS /KRAS (HRAS wild-type protein; [4]) | NRAS /KRAS [1, 5] | HRAS /KRAS (HRAS wild-type protein; [6]) | NRAS /KRAS [1, 7] | HRAS /KRAS (HRAS wild-type protein; [8])
1 | CCO[C@@H]1C[C@H]2C(=O)NC3(CCC3)C(=O)N(C)[C@@H](C3CCCC3)C(=O)N(C)[C@H](C(=O)N3CCCCC3)CC(=O)N(C)[C@H]3CCCCCCc4ccc(cc4)C[C@@H](C(=O)N(C)CC(=O)N[C@@H](CCc4ccc(C(F)(F)F)c(OC)c4)C(=O)N2C1)N1CC/C=C\C[C@@H](C1=O)N(C)C(=O)CN(C)C(=O)[C@H]([C@@H](C)CC)NC3=O [PP3033] | 4.7 | – | – | A (a compound having 10 or more and less than 20 is denoted as A) | B (a compound having 3 or more and less than 10 is denoted as B) | – | –
2 | CCO[C@@H]1C[C@H]2C(=O)NC3(CCC3)C(=O)N(C)[C@@H](C3CCCC3)C(=O)N(C)[C@H](C(=O)N3CCOCC3)CC(=O)N(C)[C@@H](CC(C)C)C(=O)N[C@@H]([C@@H](C)CC)C(=O)N(C)CC(=O)N(C)[C@H]3CCCCCN(C3=O)[C@@H](Cc3ccc(F)c(Cl)c3)C(=O)N(C)CC(=O)N[C@@H](CCc3cc(F)c(C(F)(F)F)c(F)c3)C(=O)N2C1 [PP0919] | 110 | – | – | B (a compound having 3 or more and less than 10 is denoted as B) | B (a compound having 3 or more and less than 10 is denoted as B) | – | –
3 | CCCN1C(=O)CN(C)C(=O)[C@@H]2CCN2C(=O)[C@H]([C@@H](C)CC)NC(=O)[C@H](CC(C)C)N(C)C(=O)C[C@@H](C(=O)N(C)C)N(C)C(=O)[C@H](C2CCCC2)N(C)C(=O)C2(CCCC2)NC(=O)[C@@H]2C[C@@H](OCC)CN2C(=O)[C@H](CCc2ccc(C(F)(F)F)c(Cl)c2)NC(=O)CN(C)C(=O)[C@@H]1Cc1ccc(C(F)(F)F)cc1 [PP0433] ([NMeL]I[Aze][Sar][NPrPhe(4-CF3)][Sar][hPhe(3-Cl-4-CF3)][Hyp](Et)[Ac5c][NMeGly(cPent)][NMeD]-NMe2; lactam N-11) | 11 | B (a compound having 3 or more and less than 10 is denoted as B) | B (a compound having 3 or more and less than 10 is denoted as B) | – | – | – | –
4 | CC[C@H](C)[C@@H]1NC(=O)[C@H](CC(C)C)NC(=O)C[C@@H](C(=O)N2CCOCC2)N(C)C(=O)[C@H](C2CCCC2)N(C)C(=O)C2(CCCC2)NC(=O)[C@@H]2CCCN2C(=O)[C@H](CCc2cc(F)c(C(F)(F)F)c(F)c2)NC(=O)CN(C)C(=O)[C@H](Cc2ccc(C(F)(F)F)cc2)N2CCCC[C@@H](C2=O)N(C)C(=O)CN(C)C1=O [PP0590] | 20.9 | C (A compound having a KD ratio of 0.1 or more and less than 3 is denoted as C) | B (a compound having 3 or more and less than 10 is denoted as B) | – | – | – | –
5 | CCCN1C(=O)[C@@H]2CCN2C(=O)CN(C)C(=O)[C@H]([C@@H](C)CC)NC(=O)[C@H](CC(C)C)N(C)C(=O)C[C@@H](C(=O)N2CCOCC2)N(C)C(=O)[C@H](C2CCCC2)N(C)C(=O)C2(CCCC2)NC(=O)[C@@H]2CC(F)(F)CN2C(=O)[C@H](CCc2ccc(C(F)(F)F)c(Cl)c2)NC(=O)CN(C)C(=O)[C@@H]1Cc1ccc(C(F)(F)F)cc1 [PP0408] ([NMeL]I[Sar][Aze][NPrPhe(4-CF3)][Sar][hPhe(3-Cl-4-CF3)][Pro(4,4-F2)][Ac5c][NMeGly(cPent)][NMeD]-Morpholide; lactam N-11) | 5.7 | C (A compound having a KD ratio of 0.1 or more and less than 3 is denoted as C) | B (a compound having 3 or more and less than 10 is denoted as B) | – | – | – | –
6 | CC[C@H](C)[C@@H]1NC(=O)[C@H](CC2CC2)N(C)C(=O)C[C@@H](C(=O)N2CCCC2)N(C)C(=O)[C@H](C2CCCC2)N(C)C(=O)C2(CCCC2)NC(=O)[C@@H]2C[C@@H](C(F)(F)F)CN2C(=O)[C@H](CCc2cc(F)c(C(F)(F)F)c(F)c2)NC(=O)CN(C)C(=O)[C@H](Cc2ccc(C(F)(F)F)cc2)N2CC/C=C\C[C@@H](C2=O)N(C)C(=O)CN(C)C1=O [PP1506] | 73.4 | – | – | – | – | AA (a compound having 20 or more is denoted as AA) | A (a compound having 10 or more and less than 20 is denoted as A)
7 | CC[C@H](C)[C@@H]1NC(=O)[C@H](CC(C)C)N(C)C(=O)C[C@@H](C)N(C)C(=O)[C@H](C2CCCC2)N(C)C(=O)C2(CCCC2)NC(=O)[C@@H]2CCCN2C(=O)[C@H](CCc2cc(F)c(C(F)(F)F)c(F)c2)NC(=O)CN(C)C(=O)[C@H](Cc2ccc(C(F)(F)F)cc2)N2CC/C=C\C[C@@H](C2=O)N(C)C(=O)CN(C)C1=O [PP1102] | 83.1 | – | – | B (a compound having 3 or more and less than 10 is denoted as B) | A (a compound having 10 or more and less than 20 is denoted as A) | – | –
8 | CCCN1C(=O)CN(C)C(=O)CN(C)C(=O)[C@H]([C@@H](C)CC)NC(=O)[C@H](CC(C)C)N(C)C(=O)C[C@@H](C(=O)N2CCOCC2)N(C)C(=O)[C@H](C2CCCC2)N(C)C(=O)C2(CCCC2)NC(=O)[C@@H]2CCCN2C(=O)[C@H](CCc2ccc(C(F)(F)F)c(Cl)c2)NC(=O)CN(C)C(=O)[C@@H]1Cc1ccc(F)cc1 [PP0214] ([NMeL]I[Sar][Sar][X26][Sar][hPhe(3-Cl-4-CF3)]P[Ac5c][NMeGly(cPent)][NMeD]-Morpholide; lactam N-11) | 5.4 | – | – | B (a compound having 3 or more and less than 10 is denoted as B) | C (A compound having a KD ratio of 0.1 or more and less than 3 is denoted as C) | – | –

Further lines, with some results ahead:

Row | IC50 [2] [nM] | Structure (SMILES) | NRAS /KRAS [1, 3] | HRAS /KRAS (HRAS wild-type protein; [4]) | NRAS /KRAS [1, 5] | HRAS /KRAS (HRAS wild-type protein; [6]) | NRAS /KRAS [1, 7] | HRAS /KRAS (HRAS wild-type protein; [8])
9 | 8.1 | CCOC[C@H]1C(=O)N[C@@H]([C@@H](C)CC)C(=O)N(C)CC(=O)N(C)[C@H]2C/C=C\CCN(C2=O)[C@@H](Cc2ccc(C(F)(F)F)cc2)C(=O)N(C)CC(=O)N[C@@H](CCc2cc(F)c(C(F)(F)F)c(F)c2)C(=O)N2C[C@H](OCC)C[C@H]2C(=O)NC2(CC(C)(C)C2)C(=O)N(C)[C@@H](C2CCCC2)C(=O)N(C)[C@H](C(=O)N(C)CC)CC(=O)N1C [PP2032] | A (a compound having 10 or more and less than 20 is denoted as A) | B (a compound having 3 or more and less than 10 is denoted as B) | – | – | – | –
10 | 2.7 | CCCN(C)C(=O)[C@@H]1CC(=O)N(C)[C@@H](CC(F)F)C(=O)N[C@@H]([C@@H](C)CC)C(=O)N(C)CC(=O)N(C)[C@H]2C/C=C\CCN(C2=O)[C@@H](Cc2ccc(C(F)(F)F)cc2)C(=O)N(C)CC(=O)N[C@@H](CCc2cc(F)c(C(F)(F)F)c(F)c2)C(=O)N2C[C@H](F)C[C@H]2C(=O)NC2(CC(C)(C)C2)C(=O)N(C)[C@@H](C2CCCC2)C(=O)N1C [PP1687] | – | – | – | – | A (a compound having 10 or more and less than 20 is denoted as A) | A (a compound having 10 or more and less than 20 is denoted as A)
11 | 90.3 | CCC[C@H]1C(=O)N[C@@H]([C@@H](C)CC)C(=O)N(C)CC(=O)N(C)[C@H]2C/C=C\CCN(C2=O)[C@@H](Cc2ccc(C(F)(F)F)cc2)C(=O)N(C)CC(=O)N[C@@H](CCc2ccc(C(F)(F)F)c(Cl)c2)C(=O)N2CCOC[C@H]2C(=O)NC2(CC(C)(C)C2)C(=O)N(C)[C@@H](C(CC)CC)C(=O)N(C)[C@H](C(=O)N(C)C)CC(=O)N1C [PP2929] | – | – | AA (a compound having 20 or more is denoted as AA) | A (a compound having 10 or more and less than 20 is denoted as A) | – | –
12 | 10 | CCO[C@@H]1C[C@H]2C(=O)NC3(CCC3)C(=O)N(C)[C@@H](C(CC)CC)C(=O)N(C)[C@H](C(=O)N3CCCC3)CC(=O)N(C)[C@H]3CCC/C=C/c4ccc(cc4)C[C@@H](C(=O)N(C)CC(=O)N[C@@H](CCc4ccc(Cl)c(Cl)c4)C(=O)N2C1)N1CC/C=C\C[C@@H](C1=O)N(C)C(=O)CN(C1CC1)C(=O)[C@H]([C@@H](C)CC)NC3=O [PP3040] | – | – | AA (a compound having 20 or more is denoted as AA) | A (a compound having 10 or more and less than 20 is denoted as A) | – | –
13 | 118 | CCO[C@@H]1C[C@H]2C(=O)NC3(CCC3)C(=O)N(C)[C@@H](C(CC)CC)C(=O)N(C)[C@H](C(=O)N3CCOCC3)CC(=O)N(C)[C@@H](CC3CC3)C(=O)N[C@@H]([C@@H](C)CC)C(=O)N(C)CC(=O)N(C)[C@H]3C/C=C\CCN(C3=O)[C@@H](Cc3ccc(F)cc3C)C(=O)N(C)CC(=O)N[C@@H](CCc3cc(F)c(C(F)(F)F)c(F)c3)C(=O)N2C1 [PP1526] | – | – | – | – | A (a compound having 10 or more and less than 20 is denoted as A) | A (a compound having 10 or more and less than 20 is denoted as A)
14 | 6.1 | C=CCN1CC(=O)N(C)[C@H]2C/C=C\CCN(C2=O)[C@@H](Cc2ccc(C(F)(F)F)cc2)C(=O)N(C)CC(=O)N[C@@H](CCc2ccc(C(F)(F)F)c(OC)c2)C(=O)N2C[C@H](OCC)C[C@H]2C(=O)NC2(CC(C)(C)C2)C(=O)N(C)[C@@H](C2CCCC2)C(=O)N(C)[C@H](C(=O)N(C)C)CC(=O)N(C)[C@@H](CCC)C(=O)N[C@@H]([C@@H](C)CC)C1=O [PP2106] | A (a compound having 10 or more and less than 20 is denoted as A) | A (a compound having 10 or more and less than 20 is denoted as A) | – | – | – | –
15 | 4 | CCC[C@H]1C(=O)N[C@@H]([C@@H](C)CC)C(=O)N(C)CC(=O)N(C)[C@H]2C/C=C\CCN(C2=O)[C@@H](Cc2ccc(C(F)(F)F)cc2)C(=O)N(C)CC(=O)N[C@@H](CCc2cc(F)c(C(F)(F)F)c(F)c2)C(=O)N2C[C@H](OCC)C[C@H]2C(=O)NC2(CC(C)(C)C2)C(=O)N(C)[C@@H](C(CC)CC)C(=O)N(C)[C@H](C(=O)N(C)C)CC(=O)N1C [PP2125] | AA (a compound having 20 or more is denoted as AA) | A (a compound having 10 or more and less than 20 is denoted as A) | – | – | – | –
